We go through 58 molecules from patent publication US10364226B2, “Pyridazinone compounds and uses thereof” (priority 2013, dated 2019).

Assay [1] relates to Influenza strain A549 A/WSN/33 (H1N1). Nature of the assay: Influenza Antiviral Assay. Conditions: neuraminidase fluorescence readout, read-out: % Inhibition. The assay is classed as cell-based, Influenza A virus.
Another assay has as its target EN PA (Influenza A virus, UniProt P15659). Nature of the assay: EN PA FRET Inhibition Assay. In kind it is biochemical. The settings on record: read-out: Potency.

The structures appear in SMILES notation. Read-outs that look alike come from different tables or passages of the source.

For the molecule `Cc1cc(CNC(=O)c2nn(CC3(c4cccc(C(F)(F)F)c4)CCCC3)cc(O)c2=O)[nH]n1` [Compound 648], the EC50 in assay [1] (Influenza A virus, A549, 20 h) is less than 20000 nM. At EN PA, the IC50 is less than 100 nM.
The matching figures for `O=C(NCc1cnn(-c2ccc(F)cc2)c1)c1nn(CC2(c3cccc(C(F)(F)F)c3)CCCC2)cc(O)c1=O` [Compound 649]: less than 20000 nM and less than 100 nM.
The matching figures for `CCn1cc(CNC(=O)c2nn(CC3(c4cccc(C(F)(F)F)c4)CCCC3)cc(O)c2=O)cn1` [Compound 650]: less than 20000 nM and less than 100 nM.
Turning to `CNC(=O)c1nn(Cc2ccccc2-c2ccccc2)cc(O)c1=O` [Compound 654], the EC50 in assay [1] (Influenza A virus, A549, 20 h) was more than 100000 nM. Also, on EN PA, the IC50 was 100 to 1000 nM.
On the same counts, the results for `Cc1ccc(C2(Cn3cc(O)c(=O)c(C(=O)O)n3)CC2)cc1` [Compound 655] are more than 100000 nM and less than 100 nM.
Take `CNC(=O)c1nn(CC2(c3ccc(C)cc3)CC2)cc(O)c1=O` [Compound 656]: the EC50 in assay [1] (Influenza A virus, A549, 20 h) was more than 100000 nM. Further, the IC50 on EN PA lay within 100 to 1000 nM.
On the same counts, the results for `CNC(=O)c1nn(CC(c2ccccc2)C2CCCC2)cc(O)c1=O` (centres unmarked) [Compound 658] are more than 100000 nM and 100 to 1000 nM.
The matching figures for `CNC(=O)c1nn(CC(c2ccccc2)C2CCCCC2)cc(O)c1=O` (centres unmarked) [Compound 659]: more than 100000 nM and 100 to 1000 nM.
For the molecule `CNC(=O)c1nn(CC(c2ccccc2)c2ccccc2)cc(O)c1=O` [Compound 660], the EC50 in assay [1] (Influenza A virus, A549, 20 h) was more than 100000 nM. Also, on EN PA, the IC50 lay in the range of 100 to 1000 nM.
On the same counts, the results for `Cc1cn(C2(Cn3cc(O)c(=O)c(C(=O)NC4CC4)n3)CCCC2)c2ncccc12` [Compound 661] are less than 20000 nM and less than 100 nM.
The matching figures for `CNC(=O)c1nn(CC2(n3cc(C)c4cccnc43)CCCC2)cc(OC(C)=O)c1=O` [Compound 662]: less than 20000 nM and less than 100 nM.
The matching figures for `Cc1csc(CNC(=O)c2nn(CC3(c4cccc(C(F)(F)F)c4)CCCC3)cc(O)c2=O)c1` [Compound 663]: more than 100000 nM and 100 to 1000 nM.
`O=C(NCc1cccnc1)c1nn(CC2(c3ccccc3)CCCC2)cc(O)c1=O` [Compound 664]: the EC50 in assay [1] (Influenza A virus, A549, 20 h) was more than 100000 nM. In addition, the IC50 on EN PA lay in the range of 100 to 1000 nM.
`CNC(=O)c1nn(CC2(c3cccc(C(C)C)c3)CCCC2)cc(O)c1=O` [Compound 665]: in assay [1] (Influenza A virus, A549, 20 h), the EC50 was less than 20000 nM. Further, the IC50 on EN PA was less than 100 nM.
The matching figures for `CNC(=O)c1nn(CC2(c3cccc(Br)c3)CCCC2)cc(O)c1=O` [Compound 666]: less than 20000 nM and less than 100 nM.
The matching figures for `O=C(NCc1ccc2[nH]ncc2c1)c1nn(CC2(c3cccc(C(F)(F)F)c3)CCCC2)cc(O)c1=O` [Compound 669]: more than 100000 nM and less than 100 nM.
The matching figures for `CNC(=O)c1nn(CC2c3ccccc3CCc3ccccc32)cc(O)c1=O` [Compound 670]: more than 100000 nM and 100 to 1000 nM.
As for `CNC(=O)c1nn(CC2(n3cc(-c4ccccc4)c4cccnc43)CCCC2)cc(O)c1=O` [Compound 671], the EC50 in assay [1] (Influenza A virus, A549, 20 h) was less than 20000 nM. Besides, at EN PA, the IC50 fell in the range of 100 to 1000 nM.
In the case of `CNC(=O)c1nn(CC2(c3cccc(-c4ccccc4)c3)CCCC2)cc(O)c1=O` [Compound 674], the EC50 in assay [1] (Influenza A virus, A549, 20 h) was less than 20000 nM. Also, the IC50 on EN PA is less than 100 nM.
On the same counts, the results for `O=C(NC1CC1)c1nn(CC2(c3ccccc3)CCCC2)cc(O)c1=O` [Compound 676] are less than 20000 nM and less than 100 nM.
In the case of `O=C(NCC1CC1)c1nn(CC2(c3ccccc3)CCCC2)cc(O)c1=O` [Compound 677], the EC50 in assay [1] (Influenza A virus, A549, 20 h) was less than 20000 nM. Further, the IC50 at EN PA is less than 100 nM.
On the same counts, the results for `CNC(=O)c1nn(CC2(n3cc(C)c4cccnc43)CCCC2)cc(OC(=O)C(C)C)c1=O` [Compound 678] are less than 20000 nM and less than 100 nM.
The matching figures for `CNC(=O)c1nn(CC2(n3cc(C)c4cccnc43)CCCC2)cc(OC(=O)C(C)(C)C)c1=O` [Compound 679]: less than 20000 nM and less than 100 nM.
The matching figures for `CNC(=O)c1nn(CC2(n3cc(Br)c4cccnc43)CCCC2)cc(O)c1=O` [Compound 680]: less than 20000 nM and less than 100 nM.
For `CNC(=O)c1nn(CC2(n3cc(C(F)(F)F)c4cccnc43)CCCC2)cc(O)c1=O` [Compound 681], the EC50 in assay [1] (Influenza A virus, A549, 20 h) is less than 20000 nM. In addition, the IC50 at EN PA was less than 100 nM.
The matching figures for `O=C(NC1CC1)c1nn(CC2(n3cc(C(F)(F)F)c4cccnc43)CCCC2)cc(O)c1=O` [Compound 682]: less than 20000 nM and less than 100 nM.
For the molecule `O=C(O)c1nn(CC2(c3cccc(Br)c3)CCCC2)cc(O)c1=O` [Compound 683], the EC50 in assay [1] (Influenza A virus, A549, 20 h) is more than 100000 nM. Further, the IC50 at EN PA is less than 100 nM.
With `CNC(=O)c1nn(CC2(c3ccc(C(F)(F)F)cc3)CCCC2)cc(O)c1=O` [Compound 685], the EC50 in assay [1] (Influenza A virus, A549, 20 h) was less than 20000 nM. Besides, the IC50 on EN PA was less than 100 nM.
On the same counts, the results for `CNC(=O)c1nn(CC2(c3ccc(-c4ccccc4)cc3)CCCC2)cc(O)c1=O` [Compound 686] are less than 20000 nM and 100 to 1000 nM.
On the same counts, the results for `CNC(=O)c1nn(CC2(c3ccc(C(C)C)cc3)CCCC2)cc(O)c1=O` [Compound 687] are less than 20000 nM and less than 100 nM.
The matching figures for `O=C(NCc1ccncc1)c1nn(CC2(c3ccccc3)CCCC2)cc(O)c1=O` [Compound 692]: less than 20000 nM and less than 100 nM.
Consider `O=C(NCc1cncnc1)c1nn(CC2(c3ccccc3)CCCC2)cc(O)c1=O` [Compound 693], for which the EC50 in assay [1] (Influenza A virus, A549, 20 h) was less than 20000 nM. In addition, on EN PA, the IC50 was less than 100 nM.
Consider `CNC(=O)c1nn(CC2(n3cc(C(C)C)c4cccnc43)CCCC2)cc(O)c1=O` [Compound 694], for which the EC50 in assay [1] (Influenza A virus, A549, 20 h) was less than 20000 nM. The IC50 at EN PA was in the range of 100 to 1000 nM.
On the same counts, the results for `CNC(=O)c1nn(CC2(n3cc(C(F)(F)F)c4cccnc43)CCCC2)cc(OC(=O)C(C)(C)C)c1=O` [Compound 695] are less than 20000 nM and less than 100 nM.
On the same counts, the results for `CNC(=O)c1nn(CC2(c3cccc(Cl)c3)CCCC2)cc(O)c1=O` [Compound 700] are less than 20000 nM and less than 100 nM.
For the molecule `CNC(=O)c1nn(CC2(c3cccc(OC)c3)CCCC2)cc(O)c1=O` [Compound 703], the EC50 in assay [1] (Influenza A virus, A549, 20 h) is less than 20000 nM. Moreover, the IC50 on EN PA is less than 100 nM.
The matching figures for `CNC(=O)c1nn(CC(C)(C)n2cc(C(F)(F)F)c3cccnc32)cc(O)c1=O` [Compound 704]: less than 20000 nM and less than 100 nM.
The matching figures for `NC(=O)c1nn(CC2(c3ccccc3)CCCC2)cc(O)c1=O` [Compound 708]: less than 20000 nM and less than 100 nM.
For `O=C(NCc1ccc(F)c(Cl)c1)c1nn(CC2(c3ccccc3)CCCC2)cc(O)c1=O` [Compound 709], the EC50 in assay [1] (Influenza A virus, A549, 20 h) was less than 20000 nM. Further, on EN PA, the IC50 was less than 100 nM.
The matching figures for `CNC(=O)c1nn(CC2(n3cc(C4CC4)c4cccnc43)CCCC2)cc(O)c1=O` [Compound 718]: less than 20000 nM and less than 100 nM.
As to `O=C(Nc1ccc(Cl)cc1)c1nn(CC2(c3ccccc3)CCCC2)cc(O)c1=O` [Compound 720], the EC50 in assay [1] (Influenza A virus, A549, 20 h) is more than 100000 nM. For the same molecule, on EN PA, the IC50 was less than 100 nM.
On the same counts, the results for `NC(=O)c1nn(CC2(c3cccc(-c4ccccc4)c3)CCCC2)cc(O)c1=O` [Compound 722] are more than 100000 nM and less than 100 nM.
In the case of `CC(C)c1cccc(C2(Cn3cc(O)c(=O)c(C(=O)O)n3)CCCC2)c1` [Compound 723], in assay [1] (Influenza A virus, A549, 20 h), the EC50 fell in the range of 20000 to 100000 nM. Moreover, the IC50 at EN PA was less than 100 nM.
In the case of `CC(C)c1cccc(C2(Cn3cc(O)c(=O)c(C(N)=O)n3)CCCC2)c1` [Compound 730], the EC50 in assay [1] (Influenza A virus, A549, 20 h) is less than 20000 nM. For the same molecule, the IC50 on EN PA was less than 100 nM.
On the same counts, the results for `CCc1cccc(C2(Cn3cc(O)c(=O)c(C(=O)NC)n3)CCCC2)c1` [Compound 733] are less than 20000 nM and less than 100 nM.
On the same counts, the results for `C=Cc1cccc(C2(Cn3cc(O)c(=O)c(C(=O)NC)n3)CCCC2)c1` [Compound 738] are less than 20000 nM and less than 100 nM.
As for `CNC(=O)c1nn(CC2(n3cc(C)c4ccccc43)CCCC2)cc(O)c1=O` [Compound 740], in assay [1] (Influenza A virus, A549, 20 h), the EC50 is less than 20000 nM. Besides, the IC50 at EN PA was less than 100 nM.
In the case of `CCNC(=O)c1nn(CC2(n3cc(C)c4cccnc43)CCCC2)cc(O)c1=O` [Compound 741], in assay [1] (Influenza A virus, A549, 20 h), the EC50 is less than 20000 nM. Moreover, the IC50 on EN PA is less than 100 nM.
`CNC(=O)c1nn(CC2(n3cc(-c4ccccc4)c4cccnc43)CCCC2)cc(O)c1=O` [Compound 742]: the EC50 in assay [1] was less than 20000 nM. The IC50 on EN PA was less than 100 nM.
As to `CNC(=O)c1nn(CC2(n3cc(Cl)c4cccnc43)CCCC2)cc(O)c1=O` [Compound 743], the EC50 in assay [1] (Influenza A virus, A549, 20 h) is less than 20000 nM. In addition, the IC50 at EN PA is less than 100 nM.
On the same counts, the results for `CCc1ccc(C2(Cn3cc(O)c(=O)c(C(=O)NC)n3)CCCC2)cc1` [Compound 747] are less than 20000 nM and less than 100 nM.
On the same counts, the results for `CNC(=O)c1nn(CC2(c3cccc4ccccc34)CCCC2)cc(O)c1=O` [Compound 749] are less than 20000 nM and less than 100 nM.
The matching figures for `O=C(NCc1ccc(F)c(Cl)c1)c1nn(CC2(c3cccc(Cl)c3)CCCC2)cc(O)c1=O` [Compound 750]: less than 20000 nM and less than 100 nM.
Take `CNC(=O)c1nn(CC2(c3ccc(Cl)c(Cl)c3)CCCC2)cc(O)c1=O` [Compound 752]: the EC50 in assay [1] (Influenza A virus, A549, 20 h) is less than 20000 nM. In addition, at EN PA, the IC50 is less than 100 nM.
For the molecule `CCNC(=O)c1nn(CC2(n3cc(Cl)c4cccnc43)CCCC2)cc(O)c1=O` [Compound 753], the EC50 in assay [1] (Influenza A virus, A549, 20 h) is less than 20000 nM. In addition, at EN PA, the IC50 is less than 100 nM.
The matching figures for `CNC(=O)c1nn(CC2(n3ccc4cc(C5CC5)cnc43)CCCC2)cc(O)c1=O` [Compound 754]: less than 20000 nM and less than 100 nM.
As for `CCCc1cnc2c(ccn2C2(Cn3cc(O)c(=O)c(C(=O)NC)n3)CCCC2)c1` [Compound 755], the EC50 in assay [1] (Influenza A virus, A549, 20 h) was less than 20000 nM. Further, the IC50 on EN PA is less than 100 nM.
The matching figures for `CCCNC(=O)c1nn(CC2(n3cc(C)c4cccnc43)CCCC2)cc(O)c1=O` [Compound 756]: less than 20000 nM and less than 100 nM.
